Test results from patent publication US20240050585A1, “B7-H4-TARGETED ANTIBODY-DRUG CONJUGATES FOR THE TREATMENT OF CANCER” (priority 2022, published 2024).

Assays:
[1] = system: OV2423 patient derived ovarian cancer; test: Tumor growth response in OV2423 patient derived ovarian cancer xenograft mouse model; details: 4.54/0.150 mg/kg (antibody/payload) intravenously on day 1; Day 22; female BALB/c nude mice
Protocol: Female BALB/c nude mice were implanted subcutaneously with OV2423 patient derived ovarian cancer tumor fragments (˜2-3 mm^3 per mouse). Animals were randomized into treatment groups when tumor volumes were between 101-230 mm^3 (mean=155mm^3/group) (n=8/group). Vehicle, palivizumab isotype control conjugate (prepared as described in US Patent Application No. 2022/0233707A1, 4.54/0.150 mg/kg) and XMT-1660 (4.61/0.150 mg/kg, DAR 6) were dosed intravenously on day 1 (all doses are given by antibody/payload).

[2] = system: mBR9013 syngeneic breast cancer; test: Tumor growth response in mBR9013 syngeneic breast cancer mouse model; details: for TGI (tumor volume compared to vehicle control): day 15, female FVB/NJ mice
Protocol: Female FVB/NJ mice were implanted subcutaneously with mBR9013 tumor fragments (2-3 mm^3). Animals were randomized into treatment groups when tumor volumes were between 96-277 mm^3 (mean=148 mm^3/group) (n=8/group). […] Vehicle, isotype control conjugate and XMT-1660 were dosed intravenously.

palivizumab isotype control conjugate
TGI (tumor volume compared to vehicle control) [1]: 24.8%
TGI (tumor volume compared to vehicle control) ([2]; 1.51/0.050 mg/kg (antibody/payload) intravenously on day 1): −7.91%
TGI (tumor volume compared to vehicle control) ([2]; 4.54/0.150 mg/kg (antibody/payload) intravenously on day 1): 32.02%
body weight loss or clinical observations ([2]; mouse, in vivo): No significant body weight loss or clinical observations
